Laboratory results from article PMC3069040, “A Conserved Cysteine Motif Is Critical for Rice Ceramide Kinase Activity and Function” (PLoS ONE, 2011).

Key:
rACD5 = target: T1, rACD5 (Arabidopsis thaliana, UniProt Q6USK2); test: TLC with NBD fluorescence scan, turnover; assay type: biochemical; conditions: ATP 1 mM, 15 mM MgCl2, mixed micelles, 40 °C, 30 min; labelled compound
T1 construct: gene CERK; coding region in pET28b, His-tagged, E. coli BL21 (DE3), Ni-NTA; N-terminus from primer MEEGRDDE
T1 sequence (Q6USK2 1-608): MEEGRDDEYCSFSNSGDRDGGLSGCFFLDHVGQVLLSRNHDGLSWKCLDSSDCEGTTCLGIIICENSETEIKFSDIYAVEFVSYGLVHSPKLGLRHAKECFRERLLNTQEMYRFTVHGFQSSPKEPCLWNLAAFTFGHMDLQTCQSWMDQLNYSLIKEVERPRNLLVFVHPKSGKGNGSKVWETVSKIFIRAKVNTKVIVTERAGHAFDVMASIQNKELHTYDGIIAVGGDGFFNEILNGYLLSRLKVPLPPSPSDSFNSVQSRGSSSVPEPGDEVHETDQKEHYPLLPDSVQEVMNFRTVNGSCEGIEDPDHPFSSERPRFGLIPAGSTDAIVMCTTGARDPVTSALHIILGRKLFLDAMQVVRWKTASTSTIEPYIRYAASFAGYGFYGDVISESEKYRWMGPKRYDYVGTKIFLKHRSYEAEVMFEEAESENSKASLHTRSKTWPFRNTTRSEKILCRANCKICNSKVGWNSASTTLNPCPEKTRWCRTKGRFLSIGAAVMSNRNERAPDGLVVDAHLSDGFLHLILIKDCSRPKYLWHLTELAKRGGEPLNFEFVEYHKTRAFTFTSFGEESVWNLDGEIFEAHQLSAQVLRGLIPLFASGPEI

OsCERK = target: T2, OsCERK (Oryza sativa, UniProt C0LT23); test: TLC with NBD fluorescence scan, inhibition of C6-NBD-ceramide phosphorylation; assay type: biochemical
T2 construct: gene CERK; N-terminus from primer MEGGGEAL
T2 sequence (C0LT23 1-607): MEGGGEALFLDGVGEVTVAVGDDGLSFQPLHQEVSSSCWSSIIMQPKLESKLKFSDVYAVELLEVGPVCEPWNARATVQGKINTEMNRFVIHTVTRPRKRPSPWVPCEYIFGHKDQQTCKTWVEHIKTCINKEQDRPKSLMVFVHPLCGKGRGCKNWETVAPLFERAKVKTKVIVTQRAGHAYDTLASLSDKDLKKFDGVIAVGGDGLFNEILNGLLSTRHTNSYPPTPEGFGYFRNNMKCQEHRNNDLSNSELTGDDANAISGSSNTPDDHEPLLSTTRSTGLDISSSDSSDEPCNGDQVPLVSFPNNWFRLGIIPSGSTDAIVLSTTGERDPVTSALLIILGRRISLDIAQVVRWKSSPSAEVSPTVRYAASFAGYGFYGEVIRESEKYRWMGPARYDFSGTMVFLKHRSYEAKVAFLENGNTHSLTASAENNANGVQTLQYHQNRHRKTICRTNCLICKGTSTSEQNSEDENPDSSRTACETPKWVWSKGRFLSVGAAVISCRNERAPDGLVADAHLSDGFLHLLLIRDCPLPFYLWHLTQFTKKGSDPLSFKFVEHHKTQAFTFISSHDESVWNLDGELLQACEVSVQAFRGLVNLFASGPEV

[1] = substrate: Nc1ncnc2c1ncn2[C@@H]1O[C@H](COP(=O)(O)OP(=O)(O)OP(=O)(O)O)[C@@H](O)[C@H]1O; test: TLC with NBD fluorescence scan, Lineweaver-Burk; assay type: biochemical, Oryza sativa; conditions: co-substrate C6-NBD-ceramide, 15 mM MgCl2, mixed micelles, Hepes pH 7.4, 40 °C, Discussion b40 prints 36.35 µM
[2] = substrate: CCCCCCCCCCCCC/C=C/[C@@H](O)[C@H](CO)NC(=O)CCCCCNc1ccc([N+](=O)[O-])c2nonc12; test: TLC with NBD fluorescence scan, Lineweaver-Burk; assay type: biochemical, Oryza sativa; conditions: ATP 1 mM, 15 mM MgCl2, Triton X-100/cardiolipin mixed micelles, Hepes pH 7.4, 40 °C, labelled compound

Molecule: CCCCCCCCCCCCC/C=C/[C@@H](O)[C@H](CO)NC(=O)CCCCCNc1ccc([N+](=O)[O-])c2nonc12 [D-erythro-C6-NBD-ceramide]
- TLC with NBD fluorescence scan, turnover (rACD5): phosphorylating C6-NBD-ceramide to give C6-NBD-ceramide-1-phosphate, as did recombinant OsCERK and rACD5

Molecule: O=C(Nc1nc2ccc(NC(=O)C34CC5CC(CC(C5)C3)C4)cc2s1)c1ccccc1 [ceramide kinase inhibitor K1]
- % inhibition at 200 μM (OsCERK; C6-NBD-ceramide, ATP, 15 mM MgCl2, mixed micelles, 40 °C, 0.5% ethanol or methanol as solvent): > 90%

Molecule: CCCCCCCCCCCCC/C=C/[C@@H](O)[C@H](CO)N(C)C [N,N-dimethylsphingosine]
- inhibition at 100 µM (OsCERK): ~70%

B1: OsCERK (Oryza sativa Japonica Group) (protein)
chain: T2 sequence (C0LT23 1-607)
notes: N-terminus from primer MEGGGEAL
- Km [1]: 35.36 µM
- Km [2]: 4.1 µM
